In patent US20080051387A1, “TETRAHYDROPYRIDO[3,4-D]PYRIMIDINES AND RELATED ANALOGUES” (priority 2006, published 2008):

target: T1, chimeric human H3 receptor (Homo sapiens, UniProt Q9Y5N1); assay: Chimeric human H3 receptor screening GTP binding assay (inhibition of histamine-stimulated GTP-gamma35S binding, Example 8); type: biochemical; conditions: 1 h; assay described in Example 8; symbol "!" in column headed Ki; read-out: Ki ("!": percent inhibition of agonist-induced GTP-gammaS binding to H3)
T1 construct: rat Galpha-i2 (Gnai2, rat); made in house; host or cells: Sf9 insect cells (baculovirus); P2 membranes
Method in brief: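 Compound tested at 4 μM against 1 μM histamine stimulation; 125 pM GTP-gamma35S binding measured by filtration and scintillation after 60 min at room temperature. Membranes from Sf9 cells expressing chimeric human H3 plus G-protein subunits, in Tris pH 7.4/NaCl/MgCl2/GDP buffer; values are % inhibition after nonspecific subtraction.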

T1 sequence (Q9Y5N1 with tags, fused parts or gaps): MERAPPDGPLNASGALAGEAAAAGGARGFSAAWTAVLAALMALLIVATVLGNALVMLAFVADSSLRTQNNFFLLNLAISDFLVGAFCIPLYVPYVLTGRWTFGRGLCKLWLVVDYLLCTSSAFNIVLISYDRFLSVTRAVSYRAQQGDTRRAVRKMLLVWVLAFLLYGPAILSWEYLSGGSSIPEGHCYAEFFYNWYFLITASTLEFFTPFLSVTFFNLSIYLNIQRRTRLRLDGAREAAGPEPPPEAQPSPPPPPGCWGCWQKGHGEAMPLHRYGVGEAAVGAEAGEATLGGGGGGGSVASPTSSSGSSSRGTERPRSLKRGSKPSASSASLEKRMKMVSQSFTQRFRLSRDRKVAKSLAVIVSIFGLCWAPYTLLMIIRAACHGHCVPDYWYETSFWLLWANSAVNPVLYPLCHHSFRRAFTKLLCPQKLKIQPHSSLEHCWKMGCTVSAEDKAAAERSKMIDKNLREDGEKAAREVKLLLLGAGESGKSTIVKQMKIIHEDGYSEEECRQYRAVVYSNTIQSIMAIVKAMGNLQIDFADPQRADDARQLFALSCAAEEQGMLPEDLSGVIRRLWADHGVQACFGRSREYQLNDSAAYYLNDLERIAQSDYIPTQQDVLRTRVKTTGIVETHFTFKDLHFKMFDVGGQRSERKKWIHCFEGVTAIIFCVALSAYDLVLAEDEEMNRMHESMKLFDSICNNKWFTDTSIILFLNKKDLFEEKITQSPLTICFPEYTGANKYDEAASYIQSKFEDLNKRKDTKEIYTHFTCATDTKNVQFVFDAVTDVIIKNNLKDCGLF

For `Cc1cccc(C(=O)N2CCc3cnc(N4CCN(C5CCC5)CC4)nc3CC2)c1N` [Compound 537, 2-{[2-(4-cyclobutylpiperazin-1-yl)-5,6,8,9-tetrahydro-7H-pyrimido[4,5-d]azepin-7-yl]carbonyl}-6-methylaniline], which inhibition at 4 µM is on record?
The inhibition at 4 µM was no less than 90%.

With `COc1cccc(/C=C/C(=O)N2CCc3cnc(N4CCN(C5CCC5)CC4)nc3CC2)c1` [Compound 564, 2-(4-cyclobutylpiperazin-1-yl)-7-[(2E)-3-(3-methoxyphenyl)prop-2-enoyl]-6,7,8,9-tetrahydro-5H-pyrimido[4,5-d]azepine] as the compound, how does the inhibition at 4 µM read?
Its inhibition at 4 µM is no less than 90%.

With `O=C(c1cc(Cl)ccc1Cl)N1CCc2cnc(N3CCN(C4CCC4)CC3)nc2CC1` [Compound 441, 2-(4-cyclobutylpiperazin-1-yl)-7-(2,5-dichlorobenzoyl)-6,7,8,9-tetrahydro-5H-pyrimido[4,5-d]azepine] as the compound, how does the inhibition at 4 µM read?
Its inhibition at 4 µM is no less than 90%.

Which inhibition at 4 µM does the source give for `COc1ccc(Br)c(OC)c1C(=O)N1CCc2cnc(N3CCN(C4CCC4)CC3)nc2CC1` [Compound 414, 7-(3-bromo-2,6-dimethoxybenzoyl)-2-(4-cyclobutylpiperazin-1-yl)-6,7,8,9-tetrahydro-5H-pyrimido[4,5-d]azepine] here?
Its inhibition at 4 µM is no less than 90%.

With `Cc1onc(-c2c(Cl)cccc2Cl)c1C(=O)N1CCc2cnc(N3CCN(C4CCC4)CC3)nc2CC1` [Compound 523, 2-(4-cyclobutylpiperazin-1-yl)-7-{[3-(2,6-dichlorophenyl)-5-methylisoxazol-4-yl]carbonyl}-6,7,8,9-tetrahydro-5H-pyrimido[4,5-d]azepine] as the compound, how does the inhibition at 4 µM read?
The inhibition at 4 µM was no less than 90%.

With `O=C(c1nsc(Cl)c1Cl)N1CCc2cnc(N3CCN(C4CCC4)CC3)nc2CC1` [Compound 526, 2-(4-cyclobutylpiperazin-1-yl)-7-[(4,5-dichloroisothiazol-3-yl)carbonyl]-6,7,8,9-tetrahydro-5H-pyrimido[4,5-d]azepine] as the compound, how does the inhibition at 4 µM read?
Its inhibition at 4 µM is no less than 90%.

How did the inhibition at 4 µM turn out when `O=C(c1cccnc1Sc1ccc(Cl)cc1)N1CCc2cnc(N3CCN(C4CCC4)CC3)nc2CC1` [Compound 493, 7-({2-[(4-chlorophenyl)thio]pyridin-3-yl}carbonyl)-2-(4-cyclobutylpiperazin-1-yl)-6,7,8,9-tetrahydro-5H-pyrimido[4,5-d]azepine] was run?
Its inhibition at 4 µM is no less than 90%.

Which inhibition at 4 µM does the source give for `O=C(c1ccc(Cl)cc1)N1CCc2cnc(N3CCN(C4CCC4)CC3)nc2CC1` [Compound 387, 7-(4-chlorobenzoyl)-2-(4-cyclobutylpiperazin-1-yl)-6,7,8,9-tetrahydro-5H-pyrimido[4,5-d]azepine] here?
The inhibition at 4 µM was no less than 90%.

Which inhibition at 4 µM does the source give for `O=C(/C=C/c1ccc(F)cc1)N1CCc2cnc(N3CCN(C4CCC4)CC3)nc2CC1` [Compound 548, 2-(4-cyclobutylpiperazin-1-yl)-7-[(2E)-3-(4-fluorophenyl)prop-2-enoyl]-6,7,8,9-tetrahydro-5H-pyrimido[4,5-d]azepine] here?
The inhibition at 4 µM was no less than 90%.

With `CCCCc1ccc(C(=O)N2CCc3cnc(N4CCN(C5CCC5)CC4)nc3CC2)nc1` [Compound 489, 7-[(5-butylpyridin-2-yl)carbonyl]-2-(4-cyclobutylpiperazin-1-yl)-6,7,8,9-tetrahydro-5H-pyrimido[4,5-d]azepine] as the compound, how does the inhibition at 4 µM read?
Its inhibition at 4 µM is no less than 90%.

same assay, conditions: 1 h; assay of Example 8; symbol "!" in column headed Ki; read-out: percent inhibition of agonist-induced GTP-gammaS binding to H3

Which inhibition at 4 µM does the source give for `O=C(c1ccc(-c2ccccc2)cc1)N1CCc2cnc(N3CCN(C4CCC4)CC3)nc2CC1` [Compound 365] here?
Its inhibition at 4 µM is no less than 90%.

With `CCC(C(=O)N1CCc2cnc(N3CCN(C4CCC4)CC3)nc2CC1)c1ccc(OC)cc1` (stereo not shown) [Compound 352, 2-(4-cyclobutylpiperazin-1-yl)-7-[2-(4-methoxyphenyl)butanoyl]-6,7,8,9-tetrahydro-5H-pyrimido[4,5-d]azepine] as the compound, how does the inhibition at 4 µM read?
The inhibition at 4 µM was no less than 90%.

`CC(C)Oc1ccc(C(=O)N2CCc3cnc(N4CCN(C5CCC5)CC4)nc3CC2)cc1` [Compound 380, 2-(4-cyclobutylpiperazin-1-yl)-7-(4-isopropoxybenzoyl)-6,7,8,9-tetrahydro-5H-pyrimido[4,5-d]azepine] was tested. Which inhibition at 4 µM did it give?
The inhibition at 4 µM was no less than 90%.

Which inhibition at 4 µM does the source give for `CC(C)CN1CCc2cnc(N3CCN(C4CCC4)CC3)nc2CC1` [Compound 251, 2-(4-cyclobutylpiperazin-1-yl)-7-isobutyl-6,7,8,9-tetrahydro-5H-pyrimido[4,5-d]azepine] here?
Its inhibition at 4 µM is no less than 90%.

With `CCSc1ccc(C(=O)N2CCc3cnc(N4CCN(C5CCC5)CC4)nc3CC2)cc1` [Compound 370, 2-(4-cyclobutylpiperazin-1-yl)-7-[4-(ethylthio)benzoyl]-6,7,8,9-tetrahydro-5H-pyrimido[4,5-d]azepine] as the compound, how does the inhibition at 4 µM read?
The inhibition at 4 µM was no less than 90%.

With `O=C(Cc1ccc2c(c1)OCO2)N1CCc2cnc(N3CCN(C4CCC4)CC3)nc2CC1` [Compound 277, 7-(1,3-benzodioxol-5-ylacetyl)-2-(4-cyclobutylpiperazin-1-yl)-6,7,8,9-tetrahydro-5H-pyrimido[4,5-d]azepine] as the compound, how does the inhibition at 4 µM read?
Its inhibition at 4 µM is no less than 90%.

How did the inhibition at 4 µM turn out when `O=C(COc1ccc2ccccc2c1)N1CCc2cnc(N3CCN(C4CCC4)CC3)nc2CC1` [Compound 336, 2-(4-cyclobutylpiperazin-1-yl)-7-[(2-naphthyloxy)acetyl]-6,7,8,9-tetrahydro-5H-pyrimido[4,5-d]azepine] was run?
The inhibition at 4 µM was no less than 90%.

For `CC(C)C(=O)N1CCc2cnc(N3CCN(C4CCC4)CC3)nc2CC1` [Compound 222, 2-(4-cyclobutylpiperazin-1-yl)-7-isobutyryl-6,7,8,9-tetrahydro-5H-pyrimido[4,5-d]azepine], which inhibition at 4 µM is on record?
Its inhibition at 4 µM is no less than 90%.

`CC(Oc1ccc(Cl)cc1)C(=O)N1CCc2cnc(N3CCN(C4CCC4)CC3)nc2CC1` (stereo not shown) [Compound 345, 7-[2-(4-chlorophenoxy)propanoyl]-2-(4-cyclobutylpiperazin-1-yl)-6,7,8,9-tetrahydro-5H-pyrimido[4,5-d]azepine] was tested. Which inhibition at 4 µM did it give?
The inhibition at 4 µM was no less than 90%.

How did the inhibition at 4 µM turn out when `CC(C)c1ccc(CN2CCc3cnc(N4CCN(C5CCC5)CC4)nc3CC2)cc1` [Compound 244, 2-(4-cyclobutylpiperazin-1-yl)-7-(4-isopropylbenzyl)-6,7,8,9-tetrahydro-5H-pyrimido[4,5-d]azepine] was run?
Its inhibition at 4 µM is no less than 90%.

For `Cc1ccccc1CC(=O)N1CCc2cnc(N3CCN(C4CCC4)CC3)nc2CC1` [Compound 305, 2-(4-cyclobutylpiperazin-1-yl)-7-[(2-methylphenyl)acetyl]-6,7,8,9-tetrahydro-5H-pyrimido[4,5-d]azepine], which inhibition at 4 µM is on record?
Its inhibition at 4 µM is no less than 90%.

same assay, conditions: symbol ! in Ki; test compound 4 μM, 1 μM histamine; read-out: percent inhibition of agonist-induced GTP-gammaS binding to H3

How did the inhibition at 4 µM turn out when `CC(c1nccn1C)N1CCc2c(ncnc2N2CCN(C3CCC3)CC2)C1` (stereo not shown) [Compound 107, 4-(4-cyclobutylpiperazin-1-yl)-7-[1-(1-methyl-1H-imidazol-2-yl)ethyl]-5,6,7,8-tetrahydropyrido[3,4-d]pyrimidine] was run?
Its inhibition at 4 µM is no less than 90%.

For `O=C(c1cccc(F)c1)N1CCc2c(ncnc2N2CCN(C3CCC3)CC2)C1` [Compound 29, 4-(4-cyclobutylpiperazin-1-yl)-7-(3-fluorobenzoyl)-5,6,7,8-tetrahydropyrido[3,4-d]pyrimidine], which inhibition at 4 µM is on record?
Its inhibition at 4 µM is no less than 90%.

For `CC(c1ccnc2ccccc12)N1CCc2c(ncnc2N2CCN(C3CCC3)CC2)C1` (stereo not shown) [Compound 108, 4-(4-cyclobutylpiperazin-1-yl)-7-(1-quinolin-4-ylethyl)-5,6,7,8-tetrahydropyrido[3,4-d]pyrimidine], which inhibition at 4 µM is on record?
Its inhibition at 4 µM is no less than 90%.

With `Cn1ccnc1CN1CCc2c(ncnc2N2CCN(C3CCC3)CC2)C1` [Compound 71, 4-(4-cyclobutylpiperazin-1-yl)-7-[(1-methyl-1H-imidazol-2-yl)methyl]-5,6,7,8-tetrahydropyrido[3,4-d]pyrimidine] as the compound, how does the inhibition at 4 µM read?
Its inhibition at 4 µM is no less than 90%.

For `c1nc(N2CCN(C3CCC3)CC2)nc2c1CN(CC1CC1)CC2` [Compound 634, 2-(4-cyclobutylpiperazin-1-yl)-6-(cyclopropylmethyl)-5,6,7,8-tetrahydropyrido[4,3-d]pyrimidine], which inhibition at 4 µM is on record?
Its inhibition at 4 µM is no less than 90%.

How did the inhibition at 4 µM turn out when `Cc1c(F)cccc1CN1CCc2ncnc(N3CCN(C4CCC4)CC3)c2CC1` [Compound 179, 4-(4-cyclobutylpiperazin-1-yl)-7-(3-fluoro-2-methylbenzyl)-6,7,8,9-tetrahydro-5H-pyrimido[4,5-d]azepine] was run?
Its inhibition at 4 µM is no less than 90%.

Which inhibition at 4 µM does the source give for `CCCCN1CCc2nc(N3CCN(C4CCC4)CC3)ncc2C1` [Compound 628, 6-butyl-2-(4-cyclobutylpiperazin-1-yl)-5,6,7,8-tetrahydropyrido[4,3-d]pyrimidine] here?
The inhibition at 4 µM was no less than 90%.

How did the inhibition at 4 µM turn out when `Cc1c(F)cccc1CN1CCc2c(ncnc2N2CCN(C3CCC3)CC2)C1` [Compound 97, 4-(4-cyclobutylpiperazin-1-yl)-7-(3-fluoro-2-methylbenzyl)-5,6,7,8-tetrahydropyrido[3,4-d]pyrimidine] was run?
The inhibition at 4 µM was no less than 90%.

For `c1ccc2c(CN3CCc4ncnc(N5CCN(C6CCC6)CC5)c4CC3)ccnc2c1` [Compound 151, 4-(4-cyclobutylpiperazin-1-yl)-7-(quinolin-4-ylmethyl)-6,7,8,9-tetrahydro-5H-pyrimido[4,5-d]azepine], which inhibition at 4 µM is on record?
The inhibition at 4 µM was no less than 90%.

`CC(c1ccc2ccccc2n1)N1CCc2c(ncnc2N2CCN(C3CCC3)CC2)C1` (stereo not shown) [Compound 130, 4-(4-cyclobutylpiperazin-1-yl)-7-(1-quinolin-2-ylethyl)-5,6,7,8-tetrahydropyrido[3,4-d]pyrimidine] was tested. Which inhibition at 4 µM did it give?
Its inhibition at 4 µM is no less than 90%.

`Cc1cccc(CN2CCc3c(ncnc3N3CCN(C4CCC4)CC3)C2)c1` [Compound 69, 4-(4-cyclobutylpiperazin-1-yl)-7-(3-methylbenzyl)-5,6,7,8-tetrahydropyrido[3,4-d]pyrimidine] was tested. Which inhibition at 4 µM did it give?
The inhibition at 4 µM was no less than 90%.

`COc1ccccc1CN1CCc2nc(N3CCN(C4CCC4)CC3)ncc2C1` [Compound 623, 2-(4-cyclobutylpiperazin-1-yl)-6-(2-methoxybenzyl)-5,6,7,8-tetrahydropyrido[4,3-d]pyrimidine] was tested. Which inhibition at 4 µM did it give?
The inhibition at 4 µM was no less than 90%.

`CC(C)CN1CCc2nc(N3CCN(C4CCC4)CC3)ncc2C1` [Compound 631, 2-(4-cyclobutylpiperazin-1-yl)-6-isobutyl-5,6,7,8-tetrahydropyrido[4,3-d]pyrimidine] was tested. Which inhibition at 4 µM did it give?
Its inhibition at 4 µM is no less than 90%.
